Laboratory results from patent publication US7598392B2, “2-amido-4-phenylthiazole derivatives, the preparation and the therapeutic use thereof” (sanofi-aventis, priority 2004, dated 2009).

Tests used:
[1] = biological target: T1, human CCR2b receptor (Homo sapiens, UniProt P41597); experiment: Inhibitory activity on cells expressing the human CCR2b receptor; type: cell-based
T1 sequence (P41597 1-360 isoform P41597-2): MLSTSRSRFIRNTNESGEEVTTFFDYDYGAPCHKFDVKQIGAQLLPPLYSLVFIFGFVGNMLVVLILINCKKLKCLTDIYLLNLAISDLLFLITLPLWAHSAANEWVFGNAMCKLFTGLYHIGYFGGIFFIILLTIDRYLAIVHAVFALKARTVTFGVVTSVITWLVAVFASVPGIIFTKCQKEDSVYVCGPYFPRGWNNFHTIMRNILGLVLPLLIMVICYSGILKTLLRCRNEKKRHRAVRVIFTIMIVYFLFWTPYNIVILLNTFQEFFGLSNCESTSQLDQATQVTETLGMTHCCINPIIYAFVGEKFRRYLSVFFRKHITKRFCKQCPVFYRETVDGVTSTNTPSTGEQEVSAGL
Description: The inhibitory activity of the compounds according to the invention on cells expressing the human CCR2b receptor was measured.

[2] = system: human THP-1 monocytes; experiment: Inhibition of chemotaxis on human THP-1 monocytes; type: cell-based
Description: The inhibition of chemotaxis was also measured on human THP-1 monocytes (sold by DSMZ—Germany) using a technique adapted from that described by A. Albini et al., Cancer Res., 1987, 47, 3239-3245. Under these conditions, hMCP-1 has an IC50 of 6 nM.

| Molecule | IC50 [1] [µM] | IC50 [2] [µM] |
| --- | --- | --- |
| COc1ccc(C2CCCCC2)cc1-c1csc(NC(=O)C2CCCN(C(=O)c3ccoc3C)C2)n1 (stereo not drawn) [Compound 31] | 0.044 |  |
| COc1ccc(C2CCCCC2)cc1-c1csc(NC(=O)C2CCCN(C(=O)c3cccc(C#N)c3)C2)n1 (stereo not drawn) [Compound 20] | 0.025 |  |
| CCCOc1ccc(OC)c(-c2csc(NC(=O)C3CCCN(C(=O)c4cc([N+](=O)[O-])cc([N+](=O)[O-])c4)C3)n2)c1 (stereo not drawn) [Compound 1] | 0.29 |  |

These reach a lower IC50 [1]. Values come first.

| IC50 [1] [µM] | IC50 [2] [µM] | Molecule |
| --- | --- | --- |
| 0.00057 | 0.006 | hMCP-1: "hMCP-1 (human monocyte chemotactic protein)", "belongs to the group or CC chemokines and which is a natural agonist of the CCR2b receptor" |
| 0.005 |  | COc1ccc(C2CCCCC2)cc1-c1csc(NC(=O)C2CCCN(C(=O)c3ccncn3)C2)n1 (stereo not drawn) [Compound 107, 1-(pyrimidine-4-carbonyl)piperidine-3-carboxylic acid [4-(5-cyclohexyl-2-methoxyphenyl)thiazol-2-yl]amide] |
